Converted amounts (≈) assume the structure as drawn. Where a SMILES comes first, the peptide text is derived from it. Bridges are numbered along the chain shown (N, C = ends). [ ]: non-standard residue; d: D form. The star is where a group is joined. Ileψ(thiazoline)Cys = CC[C@H](C)[C@H](N)C1=N[C@H](C(=O)*)CS1; dOrn = NCCC[C@@H](N)C(=O)O
Experiments:
[1] = tested on: S. pneumoniae R6 WT; assay type: cell-based, Streptococcus pneumoniae; details: R6 strain
Procedure: (§1) The MIC of various antimicrobial peptides for R6, R800 and D39 strains was determined by classical 2-fold broth dilution method. Cells were first grown in Todd-Hewitt medium at 37°C without agitation and in anaerobic conditions until the absorbance reaches approximatively 0.3. Complementation strains were grown with 0.5 μM ComS inducer until the appropriate OD. Cells were then diluted at final OD600nm = 0.002 in 96-well plates containing 300 μL of Todd-Hewitt medium (and 2 μM ComS inducer for the complementation strains) with serial dilutions of antimicrobial peptides. Pneumococcal growth was monitored by a microplate reader (TECAN) at 37°C without agitation. The absorbance was followed at 600 nm every 15 min for 15 h.

[2] = tested on: S. pneumoniae R800 ΔbceAB-Δhk01-PcomX-hk01; assay type: cell-based, Streptococcus pneumoniae; details: R800 complementation strain, 2 μM ComS inducer; 2-fold broth dilution, Todd-Hewitt medium, 37°C, 15 h; at least biological triplicates, each technical duplicates
Procedure: as §1

[3] = molecular target: BceAB transporter from S. pneumoniae (Streptococcus pneumoniae, UniProt A0A0H2ZN40); assay type: biochemical; details: 5 mM nucleotide, 300 μg/mL bacitracin
Procedure: E. coli BL21(DE3) cells were transformed with pRSF-Duet1-BceAB WT, K48A or E170Q and selected on LB-agar plates containing 50 μg/mL kanamycin. One colony was inoculated into in 2L-baffled flasks containing 500 mL of 2YT medium and 50 μg/mL kanamycin and grown at 37°C, 180 rpm to OD600 of 0.6. Protein expression was induced by adding IPTG to a final concentration of 1 mM. Induction was performed overnight at 25°C and cells were harvested by centrifugation at 7,000 g for 20 min.
Cells were resuspended in buffer A (HEPES-NaOH 100 mM pH 8.0, NaCl 150 mM) and lysed by passaging them three times through a cell disruptor (Microfluidizer, Microfluidics) at 18,000 psi (or 1,24 x 108 Pa). Undisrupted cells and cell debris were removed by centrifugation at 15,000 x g for 30 min at 4°C. Membranes were harvested from the supernatant after ultracentrifugation at 150,000 x g for 1 h at 4°C. Membranes were resuspended in 20 mL of buffer A and centrifuged once again at 150,000 x g for 1 h at 4°C. Membrane pellets were homogenized in buffer HEPES-NaOH 100 mM pH 8.0, NaCl 150 mM and 20% glycerol, and stored at -80°C.
For the purification of BceAB, membranes from 0,5 L cell culture were diluted in buffer B (100 mM d’HEPES-NaOH pH 8, 150 mM NaCl, 10% glycerol) to a protein concentration of 4 mg/mL and solubilized with 0.5% (w/v) LMNG for 2 h at 4°C. After ultracentrifugation at 150,000 x g for 1 h at 4°C, the supernatant containing solubilized proteins was diluted four times using buffer B and loaded on Ni^2+-charged immobilized metal-ion affinity chromatography (IMAC) column (1 mL HisTrap HP, Cytiva). The column was washed with 10 mL of buffer B containing 0.005% (w/v) LMNG and 20 mM of imidazole. The column was further washed with the same buffer until OD280nm reached basal levels. BceAB was eluted by buffer B containing 0.005% (w/v) LMNG and an imidazole gradient from 20 to 500 mM of imidazole. Purified BceAB was dialyzed into buffer B containing 0.005% (w/v) LMNG and stored at -80°C.
The proteoliposomes were prepared as previously described for the transporter BmrA [50]. Proteoliposomes were loaded on sucrose gradient with different layers of 400 μL of 50 mM HEPES-KOH pH 8.0 buffer containing 30, 20, 15 or 10% of sucrose. One mL of proteoliposomes was loaded on the top of the sucrose gradient and ultra-centrifuged at 200,000 x g for 12 h at 4°C. Proteoliposomes were typically collected from the 15% layer and were loaded on SDS-PAGE to analyze and quantify the presence of BceAB by using a standard-curve of purified BceAB and ImageJ.
These activities were performed as previously described.

[4] = tested on: BceA-GFP in S. pneumoniae R800; experiment: BceA-GFP expression by fluorescence microscopy and Western blot; assay type: cell-based, Streptococcus pneumoniae; details: bacitracin 0.5 μg/mL, 30 min, 37°C, fluorescence microscopy of individual cells
Procedure: Cells were inoculated in C+Y medium and grown at 37°C, without agitation and in anaerobic conditions, until at OD550nm = 0.3. After centrifugation 5 min at 5,000 g, pellets were resuspended in 1/50th of initial volume in TE buffer (25 mM Tris-HCl pH = 7.5, EDTA 1 mM) with DNase/RNase 6 μg/mL and protease inhibitor CLAPA 1X (Chymostatin 1 μg/mL, Pepstatin 1 μg/mL, Leupeptin 1 μg/mL, Antipaïn 1 μg/mL, Aprotinin 4 μg/mL). Cells were lysed by sonication by using Sonifier 450 Branson device. 25 μg of crude extracts were mixed with Laemmli loading buffer and heated 10 min at 95°C. Samples were loaded onto an 12.5% SDS-PAGE and migration was performed in TG-SDS buffer (Tris-HCl 25 mM, Glycine 0.192 M, SDS 0.1% (v/v)). Proteins were transferred onto a PVDF membrane, previously activated by methanol 100%, in a transfer buffer (Tris-HCl 25 mM pH = 8, Glycine 0.192 M, methanol 20% (v/v), SDS 0.04% (v/v)). The membrane was washed with TBST (Tris-HCl 100 mM pH = 8, NaCl 150 mM, Tween 0.05%) and incubated 1 h with blocking buffer (BSA 5%, TBST). […]
Pneumococcal cells were grown at 37°C until OD550nm = 0.2 in C+Y medium. […] Images were analyzed using ImageJ (http://rsb.info.nih.gov/ij/) and the plugin MicrobeJ to generate violin plots.

SMILES: CC[C@H](C)[C@H](N)C1=N[C@H](C(=O)N[C@@H](CC(C)C)C(=O)N[C@H](CCC(=O)O)C(=O)N[C@H](C(=O)N[C@H]2CCCCNC(=O)[C@H](CC(N)=O)NC(=O)[C@@H](CC(=O)O)NC(=O)[C@H](Cc3cnc[nH]3)NC(=O)[C@@H](Cc3ccccc3)NC(=O)[C@H]([C@@H](C)CC)NC(=O)[C@@H](CCCN)NC2=O)[C@@H](C)CC)CS1 [bacitracin] ({Ileψ(thiazoline)Cys}-L[dE]IK[dOrn]I[dF]H[dD]N; lactam 4-C (inferred); N-terminus assumed)
- Minimum Inhibitory Concentration, WT ([1]; 2-fold broth dilution, Todd-Hewitt medium, 96-well plates, start OD600 0.002, 37°C, A600 followed 15 h, two to four biological replicates, each technical duplicates): 8 µg/mL
- Fold sensitivity displayed by the KO strains ([1]; KO strains versus WT MIC): 8
- MIC, ΔbceAB-Δhk01-PcomX-hk01 [2]: 1 µg/mL (≈ 0.703 µM)
- ATPase activity of wild-type BceAB stimulated by bacitracin ([3]; after reconstitution in liposomes, calculated on total protein added to the reconstitution mixture): 0.6–1 μmol of ATP hydrolyzed/min/mg
- Specific ATPase activity of wild-type BceAB in the presence of bacitracin ([3]; proteoliposomes further separated on sucrose gradient): up to 2 μmol ATP hydrolyzed/min/mg
- Expression of BceA-GFP [4]: strongly activated

From PMC9020739, “Identification of a two-component regulatory system involved in antimicrobial peptide resistance in Streptococcus pneumoniae” (PLoS Pathogens, 2022)
